Assays:
[1] = patients, Phase I to Phase III; cited from earlier work
[2] = tested on: iPSC-derived M2 macrophages; assay: Fluorescent phagocytosis screening assay, iPSC-derived M2 macrophages against glioma cells; format: cell-based, human; settings: for screen of drug libraries and known inhibitors for promoters of macrophage phagocytosis: hit: glioma cells and lung ADC cells
[3] = tested on: H1002 and H146 lung cancer cells; assay: Cell titer viability assay on lung cancer cells; format: cell-based, human; settings: indicated concentrations, 72 hours, n=3
Experimental: (A) Effects of BACE1 inhibitors on lung cancer cell proliferation. H1002 and H146 lung cancer cells were treated with the indicated concentrations of the BACE1 inhibitor AZD3293, MK-8931, AZD3839, or PF-06751979 (PF) for 72 hours. Cell viability was assessed by cell titer assay (n=3). (B-D) A preclinical trial of MK-8931 for lung cancer treatment in xenograft models. H1002 lung cancer cells (5×106) were transplanted into mouse right flank through subcutaneous injection to establish subcutaneous lung cancer xenografts. […] Tumors dissected from mice of each group were photographed (C) and weighed (D). […] Data are shown as mean SEM. p **<0.01, Student's t-test.

Compound	tolerability / safety in AD clinical trials [1]	macrophage phagocytosis against cancer cells [2]	screen of drug libraries and known inhibitors for promoters of macrophage phagocytosis: hit [2]	lung cancer cell proliferation (cell viability) [3]
CC#Cc1cncc(-c2ccc3c(c2)[C@@]2(N=C(C)C(N)=N2)[C@]2(CC[C@@H](OC)CC2)C3)c1 [AZD3293]	very safe for patients	promotes macrophage phagocytosis against cancer cells	hits	suppressed lung cancer cell proliferation
NC1=N[C@@](c2cccc(-c3cncnc3)c2)(c2ccnc(C(F)F)c2)c2cccc(F)c21 [AZD3839]	–	–	hits	suppressed lung cancer cell proliferation
Cn1cnc2c(F)c(Nc3ccc(Br)cc3Cl)c(C(=O)NOCCO)cc21 [AZD6244]	–	–	hits	–
C[C@@]1(c2nc(NC(=O)c3ncc(C(F)(F)F)cc3Cl)ccc2F)CO[C@@](C)(C(F)(F)F)C(N)=N1 [CNP520]	very safe for patients	promotes macrophage phagocytosis against cancer cells	hits	–
NC1=N[C@@]2(c3cc(NC(=O)c4cnc(C(F)F)cn4)ccc3F)CO[C@H](C(F)(F)F)[C@H]2CS1 [E2609]	–	promotes macrophage phagocytosis against cancer cells	hits	–
C[C@@]1(c2cc(NC(=O)c3ccc(C#N)cn3)ccc2F)C=CSC(N)=N1 [JNJ-54861911]	–	–	hits	–
CS[C@@]1(C(=O)Nc2ccc3[nH]nc(-c4ccc(OC(C)C)nc4)c3c2)CCN(CC(=O)N2CC=C(c3ccc(-c4ncn(C)n4)cc3)CC2)C1 [MK-8353]	–	–	hits	–
C[C@H]1C[C@H]2CSC(N)=N[C@@]2(c2nc(NC(=O)c3ccc(OC(F)F)cn3)cs2)CO1 [PF-06751979]	–	–	hits	suppressed lung cancer cell proliferation

From patent US11559528B2, “BACE1 inhibition for the treatment of cancer” (The Cleveland Clinic Foundation, priority 2019, dated 2023)
